In patent US20230391772A1, “METHODS AND COMPOSITIONS FOR TARGETED PROTEIN DEGRADATION” (Ranok Therapeutics (Hangzhou) Co. Ltd., priority 2020, published 2023):
pEC50, pIC50: −log10 of the molar value.

What was measured:
[1] = tested on: NCI-H358 human non-small cell lung cancer; test: NCI-H358 CCK-8 proliferation assay; format: cell-based; conditions: NCI-H358 cells, 72 hr
In short: (§1)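 Three KRAS(G12C) lines are used, MIA PaCa-2 at two mutant copies and the NSCLC lines NCI-H358 and NCI-H23 at one. Each compound is titrated 3-fold from 20 μM to 1.02 nM, and proliferation is scored by CCK-8.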

[2] = molecular target: T1, HSP90a protein (Homo sapiens, UniProt P07900); test: HSP90α-binding fluorescent polarization (FP) assay, BODIPY-labeled RNK04010 probe; conditions: FP competition with RNK04010 (BODIPY-labeled), 5 nM, 300 min at 25° C.
T1 construct: purchased BPS Bioscience 50298
In short: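 Compounds (20 μM down to 5.2 nM, 2.5-fold steps) compete with a 5 nM fluorescent tracer for N-terminal HSP90a, measured by fluorescence polarization. With FITC-geldanamycin, plates sit 120 min at 25 °C. With BODIPY-RNK04010, they sit 300 min at 25 °C.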

[3] = tested on: MIA PaCa-2 human pancreatic carcinoma; test: MIA PaCa-2 CCK-8 proliferation assay; format: cell-based; conditions: Homo sapiens, MIA PaCa-2, 72 h, MIA PaCa-2 cells
In short: as §1

[4] = molecular target: KRAS(G12C) (Homo sapiens, UniProt P01116, G12C); test: KRAS(G12C)/SOS1 homogeneous time-resolved fluorescence (HTRF) assay; design: purchased Cisbio 63ADK000CB16PEG; conditions: absence of GTP, 4° C. for 3 hr, read-out: KRAS (G12C) binding
Chain of KRAS(G12C) (P01116 1-188 isoform P01116-2 G12C): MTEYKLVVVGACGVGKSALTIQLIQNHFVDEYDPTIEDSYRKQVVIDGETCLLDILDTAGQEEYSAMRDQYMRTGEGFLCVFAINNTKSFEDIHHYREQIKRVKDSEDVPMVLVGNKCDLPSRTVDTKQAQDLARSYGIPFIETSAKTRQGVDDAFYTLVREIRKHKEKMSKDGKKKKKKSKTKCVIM
In short: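 Three-hour incubation at 4 °C of 3-fold compound dilutions (lowest 1.02 nM) with KRAS(G12C), SOS1 and detection reagents, GTP absent. Disruption of the KRAS(G12C)/SOS1 complex detected by time-resolved fluorescence.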

Structure (SMILES)	pEC50 [1]	pIC50 [2]	pEC50 [3]	pIC50 [4]
C=CC(=O)N1CCN(c2nc(NCCC(=O)N3CCC(CN4CCN(Cc5ccc(-n6c(C(=O)NCC(F)(F)F)nnc6-c6cc(CC)c(O)cc6O)cc5)CC4)CC3)nc3c2CCN(c2cccc4cccc(Cl)c24)C3)C[C@H]1CC#N [Compound 80, (R)-4-(4-((4-((1-(3-((4-(4-acryloyl-3-(cyanomethyl)piperazin-1-yl)-7-(8-chloronaphthalen-1-yl)-5,6,7,8-tetrahydropyrido[3,4-d]pyrimidin-2-yl)amino)propanoyl)piperidin-4-yl)methyl)piperazin-1-yl)methyl)phenyl)-5-(5-ethyl-2,4-dihydroxyphenyl)-N-(2,2,2-trifluoroethyl)-4H-1,2,4-triazole-3-carboxamide, trifluoroacetic acid]	6.00 to 7.00	6.00 to 7.00		< 6.00
C=C(F)C(=O)N1CCN(c2nc(OC[C@@H]3CCCN3CCCOCCC(=O)NCc3ccc(-n4c(O)nnc4-c4cc(CC)c(O)cc4O)cc3)nc3c2CCN(c2cccc4cccc(Cl)c24)C3)C[C@@H]1CC#N [Compound 161, 3-(3-((S)-2-(((7-(8-chloronaphthalen-1-yl)-4-((S)-3-(cyanomethyl)-4-(2-fluoroacryloyl)piperazin-1-yl)-5,6,7,8-tetrahydropyrido[3,4-d]pyrimidin-2-yl)oxy)methyl)pyrrolidin-1-yl)propoxy)-N-(4-(3-(5-ethyl-2,4-dihydroxyphenyl)-5-hydroxy-4H-1,2,4-triazol-4-yl)benzyl)propanamide]	< 6.00	6.00 to 7.00	< 6.00	6.00 to 7.00
C=CC(=O)N1CCN(c2nc(OC[C@@H]3CCCN3C(=O)C3CCN(Cc4ccc(-n5c(O)nnc5-c5cc(C(C)C)c(O)cc5O)cc4)CC3)nc3c2CCN(c2cccc4cccc(C)c24)C3)C[C@@H]1CC#N [Compound 155, 2-((S)-1-acryloyl-4-(2-(((S)-1-(1-(4-(3-(2,4-dihydroxy-5-isopropylphenyl)-5-hydroxy-4H-1,2,4-triazol-4-yl)benzyl)piperidine-4-carbonyl)pyrrolidin-2-yl)methoxy)-7-(8-methylnaphthalen-1-yl)-5,6,7,8-tetrahydropyrido[3,4-d]pyrimidin-4-yl)piperazin-2-yl)acetonitrile, trifluoroacetic acid]	< 6.00	6.00 to 7.00		< 6.00
C=CC(=O)N1CCN(c2nc(NCCC(=O)NCCOCCOCCOc3ccc(-n4c(O)nnc4-c4cc(C(C)C)c(O)cc4O)cc3)nc3c2CCN(c2cccc4cccc(Cl)c24)C3)C[C@@H]1CC#N [Compound 93, (S)-3-((4-(4-acryloyl-3-(cyanomethyl)piperazin-1-yl)-7-(8-chloronaphthalen-1-yl)-5,6,7,8-tetrahydropyrido[3,4-d]pyrimidin-2-yl)amino)-N-(2-(2-(2-(4-(3-(2,4-dihydroxy-5-isopropylphenyl)-5-hydroxy-4H-1,2,4-triazol-4-yl)phenoxy)ethoxy)ethoxy)ethyl)propanamide, trifluoroacetic acid]	< 6.00	6.00 to 7.00		
C=CC(=O)N1CCN(c2nc(NCCC(=O)NCc3ccc(-n4c(O)nnc4-c4ccc(O)cc4O)cc3)nc3c2CCN(c2cccc4cccc(Cl)c24)C3)C[C@@H]1CC#N [Compound 111, (S)-3-((4-(4-acryloyl-3-(cyanomethyl)piperazin-1-yl)-7-(8-chloronaphthalen-1-yl)-5,6,7,8-tetrahydropyrido[3,4-d]pyrimidin-2-yl)amino)-N-(4-(3-(2,4-dihydroxyphenyl)-5-hydroxy-4H-1,2,4-triazol-4-yl)benzyl)propanamide, trifluoroacetic acid]	< 6.00	< 6.00		
C=C(F)C(=O)N1CCN(c2nc(OC[C@@H]3CCN(C(=O)c4ccc(Nc5cc(-n6nc(C(F)(F)F)c7c6CC(C)(C)CC7=O)ccc5C(N)=O)cc4)C3)nc3c2CCN(c2cccc4cccc(Cl)c24)C3)C[C@@H]1CC#N [Compound 163, 2-((4-((R)-3-(((7-(8-chloronaphthalen-1-yl)-4-((S)-3-(cyanomethyl)-4-(2-fluoroacryloyl)piperazin-1-yl)-5,6,7,8-tetrahydropyrido[3,4-d]pyrimidin-2-yl)oxy)methyl)pyrrolidine-1-carbonyl)phenyl)amino)-4-(6,6-dimethyl-4-oxo-3-(trifluoromethyl)-4,5,6,7-tetrahydro-1H-indazol-1-yl)benzamide]	< 6.00	< 6.00		
C=CC(=O)N1CCN(c2nc(NCCC(=O)N3CCN(Cc4ccc5c(c4F)CN(C(=O)c4ccc(O)cc4O)C5)CC3)nc3c2CCN(c2cc(O)cc4ccccc24)C3)CC1 [Compound 105, 1-(4-(2-((3-(4-((2-(2,4-dihydroxybenzoyl)-4-fluoroisoindolin-5-yl)methyl)piperazin-1-yl)-3-oxopropyl)amino)-7-(3-hydroxynaphthalen-1-yl)-5,6,7,8-tetrahydropyrido[3,4-d]pyrimidin-4-yl)piperazin-1-yl)prop-2-en-1-one, trifluoroacetic acid]	< 6.00	< 6.00		
C=C(F)C(=O)N1CCN(c2nc(N3CCC(CN4CCN(Cc5ccc(-n6c(O)nnc6-c6cc(C(C)C)c(O)cc6O)cc5)CC4)CC3)nc3c2CCN(c2cccc4cccc(Cl)c24)C3)C[C@@H]1CC#N [Compound 129, (S)-2-(4-(7-(8-chloronaphthalen-1-yl)-2-(4-((4-(4-(3-(2,4-dihydroxy-5-isopropylphenyl)-5-hydroxy-4H-1,2,4-triazol-4-yl)benzyl)piperazin-1-yl)methyl)piperidin-1-yl)-5,6,7,8-tetrahydropyrido[3,4-d]pyrimidin-4-yl)-1-(2-fluoroacryloyl)piperazin-2-yl)acetonitrile]	6.00 to 7.00	> 7.00		

The remaining lines, values ahead:

pEC50 [1]	pIC50 [2]	pEC50 [3]	pIC50 [4]	Structure (SMILES)
< 6.00	< 6.00	< 6.00		C=CC(=O)N1CCN(c2nc(NCCC(=O)N3CCC(Cc4ccc(CN(C)Cc5ccc(-n6c(C(=O)NCC(F)(F)F)nnc6-c6cc(C(C)C)c(O)cc6O)cc5)cc4)CC3)nc3c2CCN(c2cccc4ccccc24)C3)C[C@H]1CC#N [Compound 110, (R)-4-(4-(((4-((1-(3-((4-(4-acryloyl-3-(cyanomethyl)piperazin-1-yl)-7-(naphthalen-1-yl)-5,6,7,8-tetrahydropyrido[3,4-d]pyrimidin-2-yl)amino)propanoyl)piperidin-4-yl)methyl)benzyl)(methyl)amino)methyl)phenyl)-5-(2,4-dihydroxy-5-isopropylphenyl)-N-(2,2,2-trifluoroethyl)-4H-1,2,4-triazole-3-carboxamide, trifluoroacetic acid]
6.00 to 7.00	6.00 to 7.00	< 6.00		CCC(=O)N1CCN(c2nc(NCCC(=O)N3CCC(Cc4ccc(CN(C)Cc5ccc(-n6c(O)nnc6-c6cc(C(C)C)c(O)cc6O)cc5)cc4)CC3)nc3c2CCN(c2cc(O)cc4ccccc24)C3)CC1 [Compound 63, trifluoroacetic acid]
6.00 to 7.00	6.00 to 7.00		< 6.00	CC(C)c1cc(-c2nnc(C(=O)NCC(F)(F)F)n2-c2ccc(CC3CCN(Cc4ccc(CNC(=O)CCNc5nc6c(c(N7CCN(C(=O)C(C)(C)C)CC7)n5)CCN(c5cc(O)cc7ccccc57)C6)cc4)CC3)cc2)c(O)cc1O [Compound 156]
< 6.00	> 7.00	< 6.00	< 6.00	C=C(F)C(=O)N1CCN(c2nc(OC[C@@H]3CCCN3CCCOCCC(=O)NCc3ccc(-n4c(O)nnc4-c4cc(C(C)C)c(O)cc4O)cc3)nc3c2CCN(c2cccc4cccc(Cl)c24)C3)C[C@@H]1CC#N [Compound 160, 3-(3-((S)-2-(((7-(8-chloronaphthalen-1-yl)-4-((S)-3-(cyanomethyl)-4-(2-fluoroacryloyl)piperazin-1-yl)-5,6,7,8-tetrahydropyrido[3,4-d]pyrimidin-2-yl)oxy)methyl)pyrrolidin-1-yl)propoxy)-N-(4-(3-(2,4-dihydroxy-5-isopropylphenyl)-5-hydroxy-4H-1,2,4-triazol-4-yl)benzyl)propenamide]
6.00 to 7.00	< 6.00	6.00 to 7.00		CC(=O)N1CCN(c2nc(NCCC(=O)N3CCC(Cc4ccc(CN(C)Cc5ccc(-n6c(C(=O)NCC(F)(F)F)nnc6-c6cc(C(C)C)c(O)cc6O)cc5)cc4)CC3)nc3c2CCN(c2cccc4ccccc24)C3)C[C@H]1CC#N [Compound 123, (R)-4-(4-(((4-((1-(3-((4-(4-acetyl-3-(cyanomethyl)piperazin-1-yl)-7-(naphthalen-1-yl)-5,6,7,8-tetrahydropyrido[3,4-d]pyrimidin-2-yl)amino)propanoyl)piperidin-4-yl)methyl)benzyl)(methyl)amino)methyl)phenyl)-5-(2,4-dihydroxy-5-isopropylphenyl)-N-(2,2,2-trifluoroethyl)-4H-1,2,4-triazole-3-carboxamide, trifluoroacetic acid]
